Key:
Jurkat = experiment: In vitro cytotoxic activity, 7-AAD flow cytometry, Jurkat; format: cell-based, Human; details: Homo sapiens, Jurkat, 24 h, 24 h incubation, mean ± SD, triplicate
Description: (§1) The investigation focused on the assessment of the synthesized compounds’ toxicities, utilizing a panel of six diverse cell lines. The selection of cells was based on the specific features of their metabolism, namely, Jurkat, K562, U937, and HL60 cells are suspension cultures of oncohematologic origin, and HEK293 is a conditionally normal line transformed by adenovirus and often used as control cells along with fibroblasts. The normal fibroblast line (Wi-38) utilized in the experiment was diploid and was obtained from the lung tissue of an aborted fetus. The total cytotoxic activity of 16 compounds was studied using flow cytometry.
(§2) Human cancer cell lines, including Jurkat, K562, U937, HL60, and fibroblasts (Wi-38), were obtained from the European Authentic Cell Culture Collection and further cultured according to established standard protocols using sterile methods. The cells were cultivated in RPMI 1640 (for Jurkat and K562) and DMEM (for Wi-38 and HEK293) media (Gibco, Billings, MT, USA), with the addition of […] glutamine, 10% FBS (Sigma, Kanagawa, Japan), and 100 U/mL penicillin–streptomycin (Sigma). All cell types were cultivated in a humidified atmosphere containing 5% CO₂ at a temperature of 37 °C. Subculturing was performed at two- to three-day intervals. The cells were subsequently seeded into 24-well plates at a density of 5 × 10^4 cells per well and incubated overnight. Subsequent subculturing was then performed at two-day intervals, with a seeding density of 1 × 10^5 cells per 24-well plate, using RPMI medium with 10% FBS [49].
(§3) The dissolution of the compounds tested was initially performed in dimethyl sulfoxide (DMSO) with an initial solution of 100 mM in 10% DMSO. Subsequently, the solution was diluted in a complete culture medium, namely, Dulbecco’s medium, modified Eagle’s medium (DMEM), or Roswell Park Memorial Institute medium (RPMI). Substances were added at concentrations of 10, 1, 100, 10, 1, and 0.1 μM on the day after seeding and incubated for 24 h. Following this, the cells were washed with a phosphate-buffered saline (PBS) solution and stained with 7AAD dye, as per the manufacturer’s protocol for flow cytometry. The CC50 value, which characterizes the parameters of toxicity (i.e., the concentration of the compound required for 50% inhibition of cell viability in vitro), was calculated. logC versus % inhibition was plotted, and statistical data processing was performed using Excel and GraphPad Prism v.8.0.2 (San Diego, CA, USA, 2019). The data obtained from three independent experiments were expressed as the mean of three measurements for each concentration, with the standard deviation indicated as well. These values were then relative to the control values (0.1% DMSO), which were taken as 100%.
(§4) 7-AAD (7-aminoactinomycin D) dye (eBioscience™, San Diego, CA, USA) was used to assess cell viability. Following incubation with the test compounds, the cells were harvested, washed with a phosphate–salt buffer (PBS), and subjected to centrifugation at 400× g for five minutes. The cell sediment was resuspended in 200 μL of staining buffer for flow cytometry (PBS without calcium and magnesium, 2.5% FBS) and stained with a 1 mM 7-AAD dye solution for 15 min in the dark at room temperature. Subsequently, all samples, including experimental and control groups, were analyzed using a BD FACSAria™ III Cell Sorter flow cytometer (Milpitas, CA, USA).

K562 = experiment: In vitro cytotoxic activity, 7-AAD flow cytometry, K562; format: cell-based, Human; details: Homo sapiens, K562, 24 h, 24 h incubation, mean ± SD, triplicate
Description: as §1, §2, §3, §4

U937 = experiment: In vitro cytotoxic activity, 7-AAD flow cytometry, U937; format: cell-based, Human; details: 24 h incubation, mean ± SD, triplicate
Description: as §1, §2, §3, §4

HL60 = experiment: In vitro cytotoxic activity, 7-AAD flow cytometry, HL60; format: cell-based; details: Homo sapiens, HL-60, 24 h incubation, mean ± SD, triplicate
Description: as §1, §2, §3, §4

[1] = In vitro cytotoxic activity, 7-AAD flow cytometry, Hek293; format: cell-based; details: human, HEK293 cells, conditionally normal line, 24 h incubation, mean ± SD
Description: as §1, §2, §3, §4

[2] = In vitro cytotoxic activity, 7-AAD flow cytometry, normal fibroblasts; format: cell-based; details: human, Wi-38 normal lung fibroblasts, normal fibroblasts Wi-38, 24 h incubation, mean ± SD, read-out: Fibrobl. (CC50)
Description: as §1, §2, §3, §4

Jurkat cells = experiment: Mitodamage assay (MitoSense Red, Annexin V-CF488A, 7-AAD); format: cell-based, Human; details: compound at CC50 concentration, four hours, MitoSense Red
Description: To this end, MitoSense Red, a fluorescent dye that accumulates predominantly in mitochondria and responds to changes in membrane potential, was utilized. […] Two dyes commonly employed for detecting apoptosis in cells are annexin V and 7AAD. […] Therefore, the dissipation of mitochondrial membrane potential and the associated apoptosis process in Jurkat tumor cells were analyzed in response to exposure to synthesized macrodiolides. MitoSense Red, Annexin V-CF488A, and 7-AAD were used as dyes for this analysis (see Figure 3). A flow cytometry kit (FlowCellect™ MitoDamage Kit from Millipore, Hayward, CA USA) was utilized, as it facilitates a multiparametric evaluation of three markers of cell health. These markers include changes in mitochondrial potential (early apoptosis and cell stress), phosphatidylserine expression on the cell surface (late apoptosis), and membrane permeability (cell death). The method of the simultaneous detection of mitochondrial damage was performed according to the well-known technique.  Figure 3 Detection changes in mitochondrial membrane potential (ΔΨ) and coupled early and late apoptosis in Jurkat cells treated with compounds 9d, 8d, 7d, and 6d. Staurosporine and carbonyl cyanide-m-chlorophenylhydrazone were utilized as control compounds. The addition of all the tested compounds was executed at the CC50 concentration (refer to the provided table for the cytotoxicities of the synthesized compounds). The staining of cells was conducted using MitoSense Red, Annexin V-CF488A, and 7-AAD. The incubation period lasted for a duration of four hours. The presence of three *** (p < 0.001) and two asterisks ** (p < 0.005) indicates the significance of the observed differences between the values obtained in the control sample and the samples treated with the synthesized substances (comparison was performed by one-way ANOVA). All experiments were performed in triplicate.

Row | Structure (SMILES) | CC50 (Jurkat) | CC50 (K562) | CC50 (U937; Homo sapiens, U-937, 24 h) | CC50 (HL60) | CC50 at 24 h [1] | CC50 at 24 h [2] | Jurkat cells with reduced mitochondrial membrane potential (Δψ dissipation) (Jurkat cells) | CC50 (U937)
1 | O=C1CCCC/C=C\CC/C=C\CCCCC(=O)OCCCC/C=C\CC/C=C\CCCCO1 [Compound 7c] | 18.4 ± 1.86 nM | 16.7 ± 1.59 nM | 17.3 ± 1.62 nM | 15.3 ± 1.48 nM | 46.3 ± 3.99 nM | 59.5 ± 5.37 nM |  | 
2 | O=C1CCCCC/C=C\CC/C=C\CCCCCC(=O)OCCCC/C=C\CC/C=C\CCCCO1 [Compound 7d] | 18.1 ± 1.91 nM | 17.1 ± 1.84 nM | 15.1 ± 1.43 nM | 14.5 ± 1.57 nM | 48.6 ± 4.82 nM | 60.2 ± 5.21 nM | 69.26% | 
3 | O=C1CC/C=C\CC/C=C\CCC(=O)OCCCCC/C=C\CC/C=C\CCCCCO1 [Compound 8a] | 25.3 ± 2.63 nM | 22.3 ± 2.16 nM | 23.4 ± 2.27 nM | 21.8 ± 1.96 nM | 64.3 ± 5.37 nM | 86.4 ± 7.11 nM |  | 
4 | O=C1CCC/C=C\CC/C=C\CCCC(=O)OCCCCC/C=C\CC/C=C\CCCCCO1 [Compound 8b] | 21 ± 2.34 nM | 19.2 ± 1.79 nM | 17.9 ± 1.83 nM | 18.7 ± 1.71 nM | 48.2 ± 4.34 nM | 67.2 ± 6.24 nM |  | 
5 | O=C1CCCC/C=C\CC/C=C\CCCCC(=O)OCCCCC/C=C\CC/C=C\CCCCCO1 [Compound 8c] | 17.8 ± 1.73 nM | 16.9 ± 1.62 nM | 15.5 ± 1.49 nM | 14.7 ± 1.42 nM | 47.3 ± 4.22 nM | 64.8 ± 6.35 nM |  | 
6 | O=C1CCCCC/C=C\CC/C=C\CCCCCC(=O)OCCCCC/C=C\CC/C=C\CCCCCO1 [Compound 8d] | 16.1 ± 1.58 nM | 15.2 ± 1.46 nM | 12.2 nM | 11.1 ± 1.39 nM | 51.1 ± 5.6 nM | 63.7 ± 6.07 nM | 75.42% | 12.2 ± 1.37 nM
7 | O=C1CC/C=C\CC/C=C\CCC(=O)OCCCCCC/C=C\CC/C=C\CCCCCCO1 [Compound 9a] | 24.2 ± 2.39 nM | 20.4 ± 1.89 nM | 19.8 ± 1.97 nM | 20.2 ± 2.17 nM | 54.9 ± 5.37 nM | 79.9 ± 6.9 nM |  | 
8 | O=C1CCC/C=C\CC/C=C\CCCC(=O)OCCCCCC/C=C\CC/C=C\CCCCCCO1 [Compound 9b] | 18.3 ± 2.04 nM | 17.3 ± 1.64 nM | 15.7 ± 1.53 nM | 15.6 ± 1.49 nM | 52 ± 5.43 nM | 61.6 ± 5.92 nM |  | 
9 | O=C1CCCC/C=C\CC/C=C\CCCCC(=O)OCCCCCC/C=C\CC/C=C\CCCCCCO1 [Compound 9c] | 17.3 ± 1.59 nM | 14.7 ± 1.49 nM | 13.1 ± 1.31 nM | 12.8 ± 1.37 nM | 49.2 ± 4.77 nM | 59.4 ± 5.29 nM |  | 

Reference: article PMC12155470, “Novel Tetraene Macrodiolides Are Effective Inducers of Mitochondrial Apoptosis in Jurkat Cells” (International Journal of Molecular Sciences, 2025)
